Results on 1 compound are retold here after article PMC5374215, “Fludarabine Inhibits KV1.3 Currents in Human B Lymphocytes” (Frontiers in Pharmacology, 2017).

The term inhibition denotes the relative decrease from the control value, in per cent. A higher inhibition goes with a response far below the control.

The experiment deals with T1, KV1.3 (Homo sapiens, UniProt P22001).
T1 construct: gene KCNA3; human KV1.3 channel (KV1.3-pEYFP) transiently transfected in HEK-293 cells
As to the kind of experiment: whole-cell patch clamp of KV1.3-transfected HEK-293 cells. The format is cell-based. To be noted: HEK293. (In general: The patch-clamp technique gives a direct electrical read-out from membranes.)

T1 sequence (P22001 whole entry): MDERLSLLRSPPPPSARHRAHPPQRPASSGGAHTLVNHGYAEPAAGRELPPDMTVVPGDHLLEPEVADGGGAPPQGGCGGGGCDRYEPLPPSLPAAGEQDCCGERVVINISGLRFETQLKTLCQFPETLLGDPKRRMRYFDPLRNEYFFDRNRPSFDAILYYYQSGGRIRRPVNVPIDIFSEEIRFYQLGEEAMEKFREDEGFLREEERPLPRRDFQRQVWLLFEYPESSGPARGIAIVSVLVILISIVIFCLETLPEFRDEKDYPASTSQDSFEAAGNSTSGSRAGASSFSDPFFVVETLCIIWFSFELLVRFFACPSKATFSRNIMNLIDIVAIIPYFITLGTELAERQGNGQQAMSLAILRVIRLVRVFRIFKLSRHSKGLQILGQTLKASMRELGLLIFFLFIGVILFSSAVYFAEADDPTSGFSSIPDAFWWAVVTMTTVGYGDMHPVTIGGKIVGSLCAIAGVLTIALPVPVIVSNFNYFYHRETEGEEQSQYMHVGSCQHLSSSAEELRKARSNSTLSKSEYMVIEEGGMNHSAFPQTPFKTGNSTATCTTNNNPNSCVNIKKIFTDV

Compound `O=c1ccc2c(OCCCCOc3ccccc3)c3ccoc3cc2o1` [PAP-1, 5-(4-phenoxybutoxy)psoralen] showed an inhibition at 0.2 µM of 89.5 ± 2.8%.
